Where a name gives a salt, the structure may show the parent alone. Read-outs that look alike come from different tables or passages of the source.
Experiments:
[1] = tested on: Plasmodium telomeric sequence FPf8T; assay: FRET-melting, FPf8T; conditions: K+ condition, 2 μM compound, 0.2 μM oligonucleotide
[2] = tested on: Trypanosoma 9 and 11 chromosomic sequence FTrypBT; assay: FRET-melting, FTrypBT; conditions: K+ condition, 2 μM compound, 0.2 μM oligonucleotide
Plasmodium falciparum W2 = assay: In vitro antiplasmodial activity, SYBR Green I, strain W2
Procedure: (§1) The in vitro antiplasmodial activities were tested over concentrations ranging from 39 to 40 μm against culture-adapted Plasmodium falciparum: reference strains 3D7 and W2. […] The parasites were cultivated in RPMI medium (Sigma-Aldrich, Lyon, France) supplemented with 0.5% Albumax I (Life Technologies Corporation, Paisley, UK), hypoxanthine (Sigma-Aldrich), and gentamicin (Sigma-Aldrich) with human erythrocytes and were incubated at 37° C. in a candle jar, as described in Desjardins R E et al., Antimicrob Agents Chemother, 1979; 16:710-18.
(§2) The P. falciparum drug susceptibility test was carried out in 96-well flat bottom sterile plates in a final volume of 250 μL. After a 48-hour incubation with the drugs, quantities of DNA in treated and control cultures of parasites in human erythrocytes were quantified using the SYBR Green I (Sigma-Aldrich) fluorescence-based method as described in Bennett T N et al, Antimicrob Agents Chemother, 2004; 48:1807-10. Briefly, after incubation, plates were frozen at −20° C. until use. Plates were then thawed for 2 hours at room temperature, and 100 μL of each homogenized culture was transferred to a well of a 96-well flat bottom sterile black plate (Nunc, Inc., Rochester, NY) that contained 100 μL of the SYBR Green I lysis buffer (2×SYBR Green, 20 mM Tris base pH 7.5, 5 mM EDTA, 0.008% w/v saponin, 0.08% w/v Triton X-100). […] Plates were incubated for 1 hour at room temperature and then read on a fluorescence plate reader (Tecan, Grödig, Austria) using excitation and emission wavelengths of 485 and 535 nm, respectively. Concentrations inhibiting 50% of the parasite's growth (half maximal inhibitory concentration or IC50 values) were then calculated from the obtained experimental results by non-linear regression analysis of data from dose-response curves, using TableCurve 2D version 5.0 software (Systat Software, San Jose, CA). IC50 values are reported as means calculated from three independent experiments, as described in H. Kaddouri et al., Antimicrob.

[3] = tested on: T. brucei brucei AnTat 1.9; assay: In vitro antitrypanosomal activity, Alamar Blue assay; assay type: cell-based, Trypanosoma brucei brucei; conditions: Trypanosoma brucei, read-out: IC50 T. brucei brucei
Procedure: The effects of the tested compounds on the growth of T. brucei brucei were assessed using an Alamar Blue® assay described in B. Raz et al., Acta Trop. 1997, 68, 139. T. brucei brucei AnTat 1.9 (IMTA, Antwerpen, Belgium) was cultured in MEM with Earle's salts, supplemented according to the protocol disclosed in T. Baltz et al., EMBO J. 1985, 4, 1273, with the following modifications: 0.5 mM mercaptoethanol (Sigma-Aldrich), 1.5 mM 1-cysteine (Sigma-Aldrich), 0.05 mM bathocuproine sulfate (Sigma-Aldrich), and 20% heat-inactivated horse serum (Gibco, France) at 37° C. and 5% CO2. Samples were incubated at an average density of 2000 parasites/well in sterile 96-well plates (Fisher, France) with various concentrations of compounds dissolved in 0.9% NaCl. All doses were tested in duplicate. Appropriate controls treated with solvents 0.9% NaCl or DMSO or with suramin, pentamidine, eflornithine, and fexinidazole (reference drugs purchased from Sigma-Aldrich and Fluorochem, UK) were added to each set of experiments. After a 69-hour incubation at 37° C., 10 μl of the viability marker Alamar Blue (Fisher) was added to each well, and the plates were incubated for 5 hour. The plates were read in a PerkinElmer ENSPIRE (Germany) microplate reader using an excitation wavelength of 530 nm and an emission wavelength of 590 nm. The IC50 was defined as the concentration of drug necessary to inhibit by 50% the activity of T. brucei brucei compared to the control. IC50 values were calculated using a non-linear regression analysis of dose-response curves performed using GraphPad Prism software (USA). IC50 values were calculated from three independent experiments.

[4] = tested on: human telomeric sequence F21T; assay: FRET-melting, F21T; conditions: K+ condition, 2 μM compound, 0.2 μM oligonucleotide
[5] = tested on: human duplex sequence FdxT; assay: FRET-melting, FdxT; conditions: duplex control, K+ condition, 2 μM compound, 0.2 μM oligonucleotide
[6] = tested on: Plasmodium telomeric sequence FPf1T; assay: FRET-melting, FPf1T; conditions: K+ condition, 2 μM compound, 0.2 μM oligonucleotide
[7] = tested on: Plasmodium falciparum 3D7; assay: In vitro antiplasmodial activity, SYBR Green I, strain 3D7
Procedure: as §1, §2

[8] = Plasmodium falciparum, W2, 48 h, read-out: IC50 Plasmodium falciparum W2, chloroquine-resistant strain W2, 48-hour incubation
[9] = 69-hour incubation, Alamar Blue
[10] = Plasmodium falciparum, 3D7, 48 h, read-out: IC50 Plasmodium falciparum 3D7, chloroquine-sensitive strain 3D7, 48-hour incubation
[11] = read-out: IC50 Plasmodium falciparum 3D7, chloroquine-sensitive strain 3D7, 48-hour incubation, oxalate
[12] = read-out: IC50 Plasmodium falciparum W2, chloroquine-resistant strain W2, 48-hour incubation
[13] = read-out: IC50 Plasmodium falciparum 3D7, chloroquine-sensitive strain 3D7, 48-hour incubation

Compound | FRET-melting values in K+ conditions at 2 μM ΔTm FPf8T [1] | FRET-melting values in K+ conditions at 2 μM ΔTm FtryBT [2] | IC50 (Plasmodium falciparum W2; [8]) | IC50 [3, 9] | FRET-melting values in K+ conditions at 2 μM ΔTm F21T [4] | FRET-melting values in K+ conditions at 2 μM ΔTm FdxT [5] | FRET-melting values in K+ conditions at 2 μM ΔTm FPf1T [6] | IC50 [7, 10] | IC50 ([3]; 69 h) | IC50 (Plasmodium falciparum W2; read-out: IC50 Plasmodium falciparum W2, chloroquine-resistant strain W2, 48-hour incubation, oxalate) | IC50 [7, 11] | IC50 (Plasmodium falciparum W2; [12]) | IC50 [7, 13]
COC(=O)C(CCCCNCc1ccc(-c2nc(-c3ccc(CNCCCCC(NC(=O)OC(C)(C)C)C(=O)OC)cc3)c3ccn(C)c3n2)cc1)NC(=O)OC(C)(C)C (stereo not shown) [Compound 10B, 2,4-Bis{4-[(5-(tert-butoxycarbonylamino)-5-methoxycarbonyl)pentyl)aminomethyl]phenyl}-7-methyl-7H-pyrrolo[2,3-d]pyrimidine oxalate] | 11.0 °C | 8.9 °C | 4360 ± 1700 nM | 7050 ± 660 nM | 11.8 °C | −1.0 °C | 10.1 °C | 610 ± 240 nM |  |  |  |  | 
COC(=O)C(N)CCCCNCc1ccc(-c2nc(-c3ccc(CNCCCCC(N)C(=O)OC)cc3)c3ccn(C)c3n2)cc1 (stereo not shown) [Compound 11B, 2,4-Bis{4-[(5-amino-5-(methoxycarbonyl)pentyl)aminomethyl]phenyl}-7-methyl-7H-pyrrolo[2,3-d]pyrimidine oxalate] |  |  | 70 ± 10 nM | 5040 ± 730 nM |  |  |  | > 40000 nM |  |  |  |  | 
CN(C)CCCNCc1ccc(-n2ccc3c(-c4ccccc4)nc(-c4ccccc4)nc32)cc1 [Compound 12B, 7-(4-[(3-Dimethylaminopropyl)aminomethyl]phenyl)-2,4-diphenyl-7H-pyrrolo[2,3-d]pyrimidine oxalate] |  |  | 9140 nM |  |  |  |  | 380 ± 250 nM |  |  |  |  | 
CN1CCN(CCCNCc2ccc(-c3nc(Cl)nc4c3ccn4-c3ccccc3)cc2)CC1 [Compound 18B, 2-chloro-4-{4-[(3-(4-methylpiperazin-1-yl)propyl)aminomethyl]phenyl}-7-phenyl-7H-pyrrolo[2,3-d]pyrimidine oxalate] |  |  | 6960 ± 650 nM |  |  |  |  | 680 ± 130 nM | 60 nM |  |  |  | 
CN(C)CCCNCc1cc(-c2nc(Cl)nc3c2ccn3-c2ccccc2)cs1 [Compound 20B, 2-Chloro-4-{2-[(3-dimethylaminopropyl)aminomethyl]thien-4-yl}-7-phenyl-7H-pyrrolo[2,3-d]pyrimidine oxalate] |  |  | 13600 ± 430 nM |  |  |  |  | 590 ± 170 nM | 80 nM |  |  |  | 
CN(C)CCCNCc1ccc(-n2ccc3c(-c4ccccc4)nc(Cl)nc32)cc1 [Compound 22B, 2-Chloro-7-(4-[(3-dimethylaminopropyl)aminomethyl]phenyl)-4-phenyl-7H-pyrrolo[2,3-d]pyrimidine oxalate] |  |  | 730 ± 220 nM |  |  |  |  | 800 ± 410 nM | 30 nM |  |  |  | 
CN1CCN(CCCNCc2ccc(-n3ccc4c(-c5ccccc5)nc(Cl)nc43)cc2)CC1 [Compound 23B, 2-Chloro-7-(4-[(3-(4-methylpiperazin-1-yl)propyl)aminomethyl]phenyl)-4-phenyl-7H-pyrrolo[2,3-d]pyrimidine oxalate] |  |  | 9140 nM |  |  |  |  | 380 ± 250 nM |  |  |  |  | 
CN(C)CCCNCc1ccc(-c2nc3c(c(-c4ccc(CNCCCN(C)C)cc4)n2)CCN(C(=O)OC(C)(C)C)C3)cc1 [Compound 24B, Tert-butyl 2,4-bis{4-[(3-dimethylaminopropyl)aminomethyl]phenyl})-5,6-dihydropyrido[3,4-d]pyrimidine-7(8H)-carboxylate oxalate] | 11.6 °C | 7.6 °C | 180 ± 40 nM | 780 ± 60 nM | 10.3 °C | −0.7 °C | 9.1 °C | 1630 ± 250 nM |  |  |  |  | 
CN(C)CCCNCc1ccc(-c2nc3c(c(-c4ccc(CNCCCN(C)C)cc4)n2)CCNC3)cc1 [Compound 25B, 2,4-Bis{4-[(3-dimethylaminopropyl)aminomethyl]phenyl})-5,6,7,8-dihydropyrido[3,4-d]pyrimidine oxalate] | 11.1 °C | 8.0 °C | 2230 ± 230 nM | 2430 ± 100 nM | 12.3 °C | −0.9 °C | 10.7 °C | 790 ± 120 nM |  |  |  |  | 
CN(C)CCCNCc1ccc(-c2nc(-c3ccc(CNCCCN(C)C)cc3)c3cnn(-c4ccccc4)c3n2)cc1 [Compound 36B, 4,6-Bis{4-[(3-dimethylaminopropyl)aminomethyl]phenyl}-1-phenyl-1H-pyrazolo[3,4-d]pyrimidine oxalate] |  |  | 930 ± 150 nM |  |  |  |  | 2510 ± 250 nM |  |  |  |  | 
CN(C)CCCCNCc1ccc(-c2nc(-c3ccc(CNCCCCN(C)C)cc3)c3cnn(-c4ccccc4)c3n2)cc1 [Compound 37B, 4,6-Bis{4-[(4-dimethylaminobutyl)aminomethyl]phenyl}-1-phenyl-1H-pyrazolo[3,4-d]pyrimidine] |  |  | 1180 ± 120 nM |  |  |  |  |  |  |  |  |  | 
CN(C)CCCCCNCc1ccc(-c2nc(-c3ccc(CNCCCCCN(C)C)cc3)c3cnn(-c4ccccc4)c3n2)cc1 [Compound 38B, 4,6-Bis{4-[(5-dimethylaminopentyl)aminomethyl]phenyl}-1-phenyl-1H-pyrazolo[3,4-d]pyrimidine oxalate] |  |  |  |  |  |  |  |  |  | 4730 ± 280 nM | 350 ± 90 nM |  | 
CN1CCN(CCCCNCc2ccc(-c3nc(-c4ccc(CNCCCCN5CCN(C)CC5)cc4)c4cnn(-c5ccccc5)c4n3)cc2)CC1 [Compound 39B, 4,6-Bis{4-[(4-(4-methylpiperazin-1-yl)butyl)aminomethyl]phenyl}-1-phenyl-1H-pyrazolo[3,4-d]pyrimidine oxalate] |  |  | 1530 ± 90 nM |  |  |  |  |  |  |  | 1830 ± 470 nM |  | 
CN(C)CCCCNCc1ccc(-c2nc(-c3ccc(CNCCCCN(C)C)cc3)c3ncn(-c4ccccc4)c3n2)cc1 [Compound 40B, 2,4-Bis{4-[(4-dimethylaminobutyl)aminomethyl]phenyl}-7-phenyl-7H-imidazo[4,5-d]pyrimidine oxalate] | 33.9 °C | 30.3 °C | 1770 ± 90 nM |  | 31.68 °C | 8.51 °C | 35.1 °C | 4740 ± 900 nM |  |  |  |  | 
CN(C)CCCCCNCc1ccc(-c2nc(-c3ccc(CNCCCCCN(C)C)cc3)c3cnn(-c4ccccc4)c3n2)cc1 [Compound 41B] | 34.9 °C | 33.0 °C |  |  | 34.0 °C | 9.7 °C | 36.4 °C |  |  |  |  | 1990 ± 120 nM | 1990 ± 900 nM
CN1CCN(CCCCNCc2ccc(-c3nc(-c4ccc(CNCCCCN5CCN(C)CC5)cc4)c4cnn(-c5ccccc5)c4n3)cc2)CC1 [Compound 42B] | 32.1 °C | 30. ° C. |  |  | 30.2 °C | 6.8 °C | 33.2 °C |  |  |  |  | 2370 ± 130 nM | 700 ± 150 nM
CN(C)CCCNCc1ccc(-c2nc(Cl)nc3c2ncn3-c2ccccc2)cc1 [Compound 43B, 2-Chloro-4-{4-[(3-dimethylaminopropyl)aminomethyl]phenyl}-7-phenyl-7H-imidazo[4,5-d]pyrimidine oxalate] | 3.3 °C | 2.7 °C | 830 ± 170 nM |  | 1.7 °C | 0.04 °C | 2.4 °C | 1530 ± 390 nM |  |  |  |  | 
CN(C)CCCNCc1ccc(-c2cc(Cl)nc3c2ccn3-c2ccccc2)cc1 [Compound 47B, 6-Chloro-4-{4-[(3-dimethylaminopropyl)aminomethyl]phenyl}-1-phenyl-1H-pyrrolo[2,3-b]pyridine oxalate] | 4.0 °C | 4.3 °C | 720 ± 300 nM |  | 2.8 °C | −0.2 °C | 3.3 °C | 150 ± 20 nM |  |  |  |  | 
